Test results as given in PubChem BioAssay (NCI).
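Step 1: Grow cells in 96-well plates. Step 2: Expose to compound for 48 hours at 5 concentrations. Step 3: Interpolate endpoints linearly; if unreached, use highest concentration. TGI is the concentration that stops growth completely.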

What was measured:
Test in all cases: growth of human tumour cells (NCI), 48 h
SNB-19 CNS = system: SNB-19 CNS
TK-10 renal = system: TK-10 renal
SNB-75 CNS = system: SNB-75 CNS
RPMI-8226 leukemia = system: RPMI-8226 leukemia
IGROV1 ovarian = system: IGROV1 ovarian
MALME-3M melanoma = system: MALME-3M melanoma
DU-145 prostate = system: DU-145 prostate
NCI/ADR-RES ovarian = system: NCI/ADR-RES ovarian
SF-268 CNS = system: SF-268 CNS
HL-60(TB) leukemia = system: HL-60(TB) leukemia
MDA-N = system: MDA-N
SR leukemia = system: SR leukemia
EKVX NSCLC = system: EKVX NSCLC
NCI-H460 lung = system: NCI-H460 lung
KM12 colon = system: KM12 colon
MDA-MB-435 = system: MDA-MB-435
M14 melanoma = system: M14 melanoma
SF-295 CNS = system: SF-295 CNS
NCI-H522 lung = system: NCI-H522 lung
HCT-116 colon = system: HCT-116 colon
LOX IMVI melanoma = system: LOX IMVI melanoma
OVCAR-5 ovarian = system: OVCAR-5 ovarian
COLO 205 colon = system: COLO 205 colon
HS 578T breast = system: HS 578T breast
NCI-H226 lung = system: NCI-H226 lung
SK-MEL-28 melanoma = system: SK-MEL-28 melanoma
HCT-15 colon = system: HCT-15 colon
HT29 colon = system: HT29 colon
SW-620 colon = system: SW-620 colon
K-562 leukemia = system: K-562 leukemia
HCC-2998 colon = system: HCC-2998 colon
UO-31 renal = system: UO-31 renal
RXF 393 renal = system: RXF 393 renal
A549 NSCLC = system: A549 NSCLC
T-47D breast = system: T-47D breast
NCI-H23 lung = system: NCI-H23 lung
SK-MEL-2 melanoma = system: SK-MEL-2 melanoma
PC-3 prostate = system: PC-3 prostate
OVCAR-8 ovarian = system: OVCAR-8 ovarian
U251 CNS = system: U251 CNS
OVCAR-4 ovarian = system: OVCAR-4 ovarian
ACHN renal = system: ACHN renal
OVCAR-3 ovarian = system: OVCAR-3 ovarian
UACC-62 melanoma = system: UACC-62 melanoma
MOLT-4 leukemia = system: MOLT-4 leukemia
HOP-92 NSCLC = system: HOP-92 NSCLC
CAKI-1 renal = system: CAKI-1 renal
UACC-257 melanoma = system: UACC-257 melanoma
MDA-MB-231 breast = system: MDA-MB-231 breast
HOP-62 NSCLC = system: HOP-62 NSCLC
SK-OV-3 ovarian = system: SK-OV-3 ovarian
786-0 renal = system: 786-0 renal
MCF7 breast = system: MCF7 breast
SN12C renal = system: SN12C renal
SK-MEL-5 melanoma = system: SK-MEL-5 melanoma
CCRF-CEM leukemia = system: CCRF-CEM leukemia
SF-539 CNS = system: SF-539 CNS
A498 renal = system: A498 renal

For `CCCCCCCCCCOC1C(C(O)CNCCCN(C)C)OC2OC3(CCCCC3)OC21` (centres undefined), the TGI (SNB-19 CNS) was 3.24 µM, the TGI (TK-10 renal) was 6.55 µM and the TGI (SNB-75 CNS) was 0.681 µM. For the same molecule, the TGI (RPMI-8226 leukemia) was 4.37 µM, the TGI (IGROV1 ovarian) was 3.82 µM and the TGI (MALME-3M melanoma) was 3.61 µM. The TGI (DU-145 prostate) was 9.24 µM, the TGI (NCI/ADR-RES ovarian) was 8.87 µM and the TGI (SF-268 CNS) was 5.12 µM. The TGI (HL-60(TB) leukemia) was 3.59 µM, the TGI (MDA-N) was 3.37 µM and the TGI (SR leukemia) was 0.739 µM. It also gave a TGI (EKVX NSCLC) of 7.6 µM, a TGI (NCI-H460 lung) of 3.44 µM and a TGI (KM12 colon) of 2.91 µM. For the same molecule, the TGI (MDA-MB-435) was 3.56 µM, the TGI (M14 melanoma) was 3.55 µM and the TGI (SF-295 CNS) was 3.52 µM. The TGI (NCI-H522 lung) was 3.56 µM, the TGI (HCT-116 colon) was 3.53 µM and the TGI (LOX IMVI melanoma) was 2.68 µM. It also gave a TGI (OVCAR-5 ovarian) of 3.71 µM, a TGI (COLO 205 colon) of 3.43 µM and a TGI (HS 578T breast) of 6.53 µM. For the same molecule, the TGI (NCI-H226 lung) was 36.7 µM, the TGI (SK-MEL-28 melanoma) was 3.1 µM and the TGI (HCT-15 colon) was 3.21 µM. The TGI (HT29 colon) was 3.12 µM, the TGI (SW-620 colon) was 3.24 µM and the TGI (K-562 leukemia) was 3.47 µM. It also gave a TGI (HCC-2998 colon) of 4.46 µM, a TGI (UO-31 renal) of 4.45 µM and a TGI (RXF 393 renal) of 3.7 µM. For the same molecule, the TGI (A549 NSCLC) was 11.7 µM, the TGI (T-47D breast) was 5.42 µM and the TGI (NCI-H23 lung) was 3.01 µM. For the same molecule, the TGI (SK-MEL-2 melanoma) was 4 µM, the TGI (PC-3 prostate) was 6.7 µM and the TGI (OVCAR-8 ovarian) was 4.18 µM. The TGI (U251 CNS) was 3.23 µM, the TGI (OVCAR-4 ovarian) was 4.25 µM and the TGI (ACHN renal) was 8.09 µM. For the same molecule, the TGI (OVCAR-3 ovarian) was 3.59 µM, the TGI (UACC-62 melanoma) was 4.53 µM and the TGI (MOLT-4 leukemia) was 3.87 µM. It also gave a TGI (HOP-92 NSCLC) of 5.33 µM, a TGI (CAKI-1 renal) of 4.21 µM and a TGI (UACC-257 melanoma) of 10.8 µM. The TGI (MDA-MB-231 breast) was 3.31 µM, the TGI (HOP-62 NSCLC) was 4.04 µM and the TGI (SK-OV-3 ovarian) was 13.9 µM. For the same molecule, the TGI (786-0 renal) was 3.37 µM, the TGI (MCF7 breast) was 3.7 µM and the TGI (SN12C renal) was 5.19 µM. For the same molecule, the TGI (SK-MEL-5 melanoma) was 3.34 µM and the TGI (CCRF-CEM leukemia) was 3.64 µM.

`O=C(CC(C(=O)c1ccc(F)cc1)c1ccsc1)c1cccs1` (centres undefined) showed a TGI (SNB-19 CNS) greater than 100 µM, a TGI (TK-10 renal) greater than 100 µM and a TGI (SNB-75 CNS) greater than 100 µM. It also gave a TGI (RPMI-8226 leukemia) greater than 100 µM, a TGI (IGROV1 ovarian) greater than 100 µM and a TGI (MALME-3M melanoma) greater than 100 µM. For the same molecule, the TGI (DU-145 prostate) was greater than 100 µM, the TGI (NCI/ADR-RES ovarian) was greater than 100 µM and the TGI (SF-268 CNS) was greater than 100 µM. It also gave a TGI (HL-60(TB) leukemia) greater than 100 µM, a TGI (MDA-N) greater than 100 µM and a TGI (SR leukemia) greater than 100 µM. For the same molecule, the TGI (EKVX NSCLC) was greater than 100 µM, the TGI (NCI-H460 lung) was greater than 100 µM and the TGI (KM12 colon) was greater than 100 µM. It also gave a TGI (MDA-MB-435) greater than 100 µM, a TGI (M14 melanoma) greater than 100 µM and a TGI (SF-295 CNS) greater than 100 µM. It also gave a TGI (HCT-116 colon) greater than 100 µM, a TGI (OVCAR-5 ovarian) greater than 100 µM and a TGI (COLO 205 colon) greater than 100 µM. The TGI (HS 578T breast) was greater than 100 µM, the TGI (NCI-H226 lung) was greater than 100 µM and the TGI (SK-MEL-28 melanoma) was greater than 100 µM. It also gave a TGI (HCT-15 colon) greater than 100 µM, a TGI (HT29 colon) greater than 100 µM and a TGI (SW-620 colon) greater than 100 µM. The TGI (K-562 leukemia) was greater than 100 µM, the TGI (HCC-2998 colon) was greater than 100 µM and the TGI (UO-31 renal) was greater than 100 µM. The TGI (SF-539 CNS) was greater than 100 µM, the TGI (A549 NSCLC) was greater than 100 µM and the TGI (A498 renal) was greater than 100 µM. The TGI (T-47D breast) was greater than 100 µM, the TGI (NCI-H23 lung) was greater than 100 µM and the TGI (SK-MEL-2 melanoma) was greater than 100 µM. The TGI (PC-3 prostate) was greater than 100 µM, the TGI (OVCAR-8 ovarian) was greater than 100 µM and the TGI (U251 CNS) was greater than 100 µM. It also gave a TGI (OVCAR-4 ovarian) greater than 100 µM, a TGI (ACHN renal) greater than 100 µM and a TGI (UACC-62 melanoma) greater than 100 µM. It also gave a TGI (MOLT-4 leukemia) of 89.7 µM, a TGI (CAKI-1 renal) greater than 100 µM and a TGI (UACC-257 melanoma) greater than 100 µM. It also gave a TGI (MDA-MB-231 breast) greater than 100 µM, a TGI (HOP-62 NSCLC) greater than 100 µM and a TGI (SK-OV-3 ovarian) greater than 100 µM. For the same molecule, the TGI (786-0 renal) was greater than 100 µM, the TGI (MCF7 breast) was greater than 100 µM and the TGI (SN12C renal) was greater than 100 µM. It also gave a TGI (SK-MEL-5 melanoma) greater than 100 µM and a TGI (CCRF-CEM leukemia) greater than 100 µM.

For `O=[N+]([O-])C(=C1NCCN1)C(Cl)=C(Cl)Cl`, the TGI (SNB-19 CNS) was greater than 100 µM, the TGI (TK-10 renal) was greater than 100 µM and the TGI (RPMI-8226 leukemia) was greater than 100 µM. It also gave a TGI (IGROV1 ovarian) greater than 100 µM, a TGI (MALME-3M melanoma) greater than 100 µM and a TGI (DU-145 prostate) greater than 100 µM. The TGI (NCI/ADR-RES ovarian) was greater than 100 µM, the TGI (SF-268 CNS) was greater than 100 µM and the TGI (HL-60(TB) leukemia) was greater than 100 µM. The TGI (MDA-N) was greater than 100 µM, the TGI (SR leukemia) was greater than 100 µM and the TGI (EKVX NSCLC) was greater than 100 µM. It also gave a TGI (NCI-H460 lung) greater than 100 µM, a TGI (KM12 colon) greater than 100 µM and a TGI (MDA-MB-435) greater than 100 µM. It also gave a TGI (M14 melanoma) greater than 100 µM, a TGI (SF-295 CNS) greater than 100 µM and a TGI (NCI-H522 lung) greater than 100 µM. For the same molecule, the TGI (HCT-116 colon) was greater than 100 µM, the TGI (LOX IMVI melanoma) was greater than 100 µM and the TGI (OVCAR-5 ovarian) was greater than 100 µM. The TGI (COLO 205 colon) was greater than 100 µM, the TGI (HS 578T breast) was greater than 100 µM and the TGI (NCI-H226 lung) was greater than 100 µM. The TGI (SK-MEL-28 melanoma) was greater than 100 µM, the TGI (HCT-15 colon) was greater than 100 µM and the TGI (HT29 colon) was greater than 100 µM. For the same molecule, the TGI (K-562 leukemia) was greater than 100 µM, the TGI (HCC-2998 colon) was greater than 100 µM and the TGI (UO-31 renal) was greater than 100 µM. For the same molecule, the TGI (SF-539 CNS) was greater than 100 µM, the TGI (RXF 393 renal) was greater than 100 µM and the TGI (A549 NSCLC) was greater than 100 µM. It also gave a TGI (A498 renal) greater than 100 µM, a TGI (T-47D breast) greater than 100 µM and a TGI (NCI-H23 lung) greater than 100 µM. The TGI (SK-MEL-2 melanoma) was greater than 100 µM, the TGI (PC-3 prostate) was greater than 100 µM and the TGI (OVCAR-8 ovarian) was greater than 100 µM. It also gave a TGI (U251 CNS) greater than 100 µM, a TGI (OVCAR-4 ovarian) greater than 100 µM and a TGI (ACHN renal) greater than 100 µM. For the same molecule, the TGI (OVCAR-3 ovarian) was greater than 100 µM, the TGI (UACC-62 melanoma) was greater than 100 µM and the TGI (MOLT-4 leukemia) was greater than 100 µM. The TGI (CAKI-1 renal) was greater than 100 µM, the TGI (UACC-257 melanoma) was greater than 100 µM and the TGI (MDA-MB-231 breast) was greater than 100 µM. The TGI (HOP-62 NSCLC) was greater than 100 µM, the TGI (SK-OV-3 ovarian) was greater than 100 µM and the TGI (786-0 renal) was greater than 100 µM. It also gave a TGI (MCF7 breast) greater than 100 µM, a TGI (SN12C renal) greater than 100 µM and a TGI (SK-MEL-5 melanoma) greater than 100 µM. The TGI (CCRF-CEM leukemia) was greater than 100 µM.
